Test results taken from US11225505B2, “Antimicrobial polymyxin derivative compounds” (MONASH UNIVERSITY, priority 2015, dated 2022).
≈ marks a conversion by molar mass, not a printed value. Like-named read-outs stand apart in the source and are kept apart here. Where a SMILES comes first, the peptide text is derived from it. Bridges are numbered along the chain shown (N, C = ends). [ ]: non-standard residue; d: D form. The star is where a group is joined. Nicotinoyl(6-CF3) = O=C(c1ccc(C(F)(F)F)nc1)*; X32 = O=C(c1cnc(Cl)c(Cl)c1)*; X21 = O=C(c1cnc(Cl)cc1Cl)*; Dab = NCC[C@H](N)C(=O)O; Abu = CC[C@H](N)C(=O)O; Dap = NC[C@H](N)C(=O)O

Legend:
Assay type in all cases: cell-based
[1] = tested on: Acinetobacter baumannii FADDI-AB030; assay: microbe, parasite or virus in culture; conditions: for MIC: Acinetobacter baumannii
Description: MICs of the lipopeptides (trifluoroacetic acid salt, TFA) were determined by broth microdilution in cation-adjusted Mueller-Hinton broth (CAMHB) (Oxoid Australia, Thebarton, SA, Australia) according to the Clinical and Laboratory Standards Institute protocol (Clinical and Laboratory Standards Institute, Performance standards for antimicrobial susceptibility testing; twentyforth informational supplement M100-S24. Wayne, Pa., 2014). Polymyxin B sulphate was employed as the control. […] The following isolates were examined: Pseudomonas aeruginosa ATCC 27853, Pseudomonas aeruginosa FADDI-PA022*, Pseudomonas aeruginosa FADDI-PA01*, Pseudomonas aeruginosa FADDI-PA038*, Acinetobacter baumannii FADDI-AB034*, Acinetobacter baumannii ATCC 17978, Acinetobacter baumannii FADDI-AB030*, Klebsiella pneumoniae FADDI-KP032, Klebsiella pneumoniae FADDI-KP022*, Klebsiella pneumoniae Kp BM1*, Enterobacter cloacae FADDI-EC006, Enterobacter cloacae FADDI-EC001, and Enterobacter cloacae FADDI-EC003 (* Multi drug-resistant clinical isolates, § New Delhi Metallo-beta-lactamase-1 (NDM-1) producing). The results are illustrated in Tables 4 and 5. […]

[2] = tested on: Enterobacter cloacae FADDI-EC006; conditions: FADDI-EC006
Description: (§1) MICs of the lipopeptides (trifluoroacetic acid salt, TFA) were determined by broth microdilution in cation-adjusted Mueller-Hinton broth (CAMHB) (Oxoid Australia, Thebarton, SA, Australia) according to the Clinical and Laboratory Standards Institute protocol (Clinical and Laboratory Standards Institute, Performance standards for antimicrobial susceptibility testing; twentyforth informational supplement M100-S24. Wayne, Pa., 2014). Polymyxin B sulphate was employed as the control. Antimicrobial activity of Compounds 1-104 against polymyxin-susceptible Gram-negative bacteria was examined. The following isolates were examined: Pseudomonas aeruginosa ATCC 27853, Pseudomonas aeruginosa FADDI-PA022*, Pseudomonas aeruginosa FADDI-PA01*, Pseudomonas aeruginosa FADDI-PA038*, Acinetobacter baumannii FADDI-AB034*, Acinetobacter baumannii ATCC 17978, Acinetobacter baumannii FADDI-AB030*, Klebsiella pneumoniae FADDI-KP032, Klebsiella pneumoniae FADDI-KP022*, Klebsiella pneumoniae Kp BM1*, Enterobacter cloacae FADDI-EC006, Enterobacter cloacae FADDI-EC001, and Enterobacter cloacae FADDI-EC003 (* Multi drug-resistant clinical isolates, § New Delhi Metallo-beta-lactamase-1 (NDM-1) producing). The results are illustrated in Tables 4 and 5.

[3] = tested on: Pseudomonas aeruginosa FADDI-PA038; conditions: FADDI-PA038
Description: as §1

[4] = tested on: Acinetobacter baumannii ATCC 17978; conditions: ATCC 17978
Description: as §1

[5] = tested on: Enterobacter cloacae FADDI-EC003; conditions: FADDI-EC003
Description: as §1

[6] = tested on: Klebsiella pneumoniae Kp BM1; conditions: Kp BM1
Description: as §1

[7] = tested on: Pseudomonas aeruginosa FADDI-PA01; conditions: FADDI-
Description: as §1

[8] = tested on: Klebsiella pneumoniae FADDI-KP022; conditions: FADDI-KP022
Description: as §1

[9] = tested on: Acinetobacter baumannii FADDI-AB034; conditions: FADDI-AB034
Description: as §1

[10] = tested on: Enterobacter cloacae FADDI-EC001; conditions: FADDI-EC001
Description: as §1

[11] = tested on: Pseudomonas aeruginosa ATCC 27853; conditions: ATCC 27853
Description: as §1

[12] = tested on: Pseudomonas aeruginosa FADDI-PA022; conditions: FADDI-PA022
Description: as §1

[13] = tested on: Klebsiella pneumoniae FADDI-KP032; conditions: FADDI-KP032
Description: as §1

[14] = FADDIAB030, clinically used antibiotics, clinical isolate A. baumannii FADDI-AB030, read-out: minimum inhibitory concentration

With `NCC[C@H](O)C(=O)N[C@@H]1C[C@H](N)[C@@H](O[C@H]2O[C@H](CN)[C@@H](O)[C@H](O)[C@H]2O)[C@H](O)[C@H]1O[C@H]1O[C@H](CO)[C@@H](O)[C@H](N)[C@H]1O` [Amikacin, reference compound] the MIC [1, 14] was over 32 µg/mL.
For `CC1(C)S[C@@H]2[C@H](NC(=O)[C@H](N)c3ccccc3)C(=O)N2[C@H]1C(=O)O` [Ampicillin, reference compound], the MIC [1, 14] was over 16 µg/mL.
Molecule `C[C@H]1[C@H](NC(=O)/C(=N\OC(C)(C)C(=O)O)c2csc(N)n2)C(=O)N1S(=O)(=O)O` [Aztreonam, reference compound] has an MIC [1, 14] of over 16 µg/mL.
Work on `CO/N=C(\C(=O)N[C@@H]1C(=O)N2C(C(=O)[O-])=C(C[N+]3(C)CCCC3)CS[C@H]12)c1csc(N)n1` [Cefepime, reference compound] yielded an MIC [1, 14] of over 16 µg/mL.
`CC(C)(O/N=C(\C(=O)N[C@@H]1C(=O)N2C(C(=O)[O-])=C(C[n+]3ccccc3)CS[C@H]12)c1csc(N)n1)C(=O)O` [Ceftazidime, reference compound] gave an MIC [1, 14] of over 16 µg/mL.
In the case of `CO/N=C(\C(=O)N[C@@H]1C(=O)N2C(C(=O)O)=C(CSc3nc(=O)c(=O)[nH]n3C)CS[C@H]12)c1csc(N)n1` [Ceftriaxone, reference compound], the MIC [1, 14] is reported as over 32 µg/mL.
`CC[C@@H]1NC(=O)[C@@H](CC(C)C)NC(=O)[C@H](CCN)NC(=O)[C@@H](NC(=O)[C@H](CN)NC(=O)[C@@H](NC(=O)[C@H](CCN)NC(=O)c2cnc(Cl)cc2Cl)[C@@H](C)O)CCNC(=O)[C@H]([C@@H](C)O)NC(=O)[C@H](CCN)NC(=O)[C@H](CCN)NC1=O` [Compound 2] (X21-[Dab]T[Dap][Dab][Dab][dL][Abu][Dab][Dab]T; lactam 4-C) showed a Minimum inhibitory concentration ([1]; FADDI-AB030) of 2 µg/mL (≈ 1.72 µM), a Minimum inhibitory concentration [2] of 2 µg/mL (≈ 1.72 µM) and a Minimum inhibitory concentration [3] of 1 µg/mL (≈ 0.861 µM). It also gave a Minimum inhibitory concentration [4] of 8 µg/mL (≈ 6.89 µM), a Minimum inhibitory concentration [5] of 2 µg/mL (≈ 1.72 µM) and a Minimum inhibitory concentration [6] of 0.5 µg/mL (≈ 0.431 µM). It also gave a Minimum inhibitory concentration [7] of 0.5 µg/mL (≈ 0.431 µM), a Minimum inhibitory concentration [8] of under 0.125 µg/mL and a Minimum inhibitory concentration [9] of 8 µg/mL (≈ 6.89 µM). The Minimum inhibitory concentration [10] was 0.25 µg/mL (≈ 0.215 µM), the Minimum inhibitory concentration [11] was 0.5 µg/mL (≈ 0.431 µM) and the Minimum inhibitory concentration [12] was 0.5 µg/mL (≈ 0.431 µM). The Minimum inhibitory concentration [13] was 0.5 µg/mL (≈ 0.431 µM).
`CC[C@@H]1NC(=O)[C@@H](CC(C)C)NC(=O)[C@H](CCN)NC(=O)[C@@H](NC(=O)[C@H](CN)NC(=O)[C@@H](NC(=O)[C@H](CCN)NC(=O)c2ccc(C(F)(F)F)nc2)[C@@H](C)O)CCNC(=O)[C@H]([C@@H](C)O)NC(=O)[C@H](CCN)NC(=O)[C@H](CCN)NC1=O` [Compound 3] ({Nicotinoyl(6-CF3)}-[Dab]T[Dap][Dab][Dab][dL][Abu][Dab][Dab]T; lactam 4-C) was tested, and the Minimum inhibitory concentration ([1]; FADDI-AB030) was 1 µg/mL (≈ 0.862 µM), the Minimum inhibitory concentration [2] was 1 µg/mL (≈ 0.862 µM) and the Minimum inhibitory concentration [3] was 1 µg/mL (≈ 0.862 µM). It also gave a Minimum inhibitory concentration [4] of 1 µg/mL (≈ 0.862 µM), a Minimum inhibitory concentration [5] of 0.25 µg/mL (≈ 0.215 µM) and a Minimum inhibitory concentration [6] of 1 µg/mL (≈ 0.862 µM). For the same molecule, the Minimum inhibitory concentration [7] was 0.5 µg/mL (≈ 0.431 µM), the Minimum inhibitory concentration [8] was under 0.125 µg/mL and the Minimum inhibitory concentration [9] was 1 µg/mL (≈ 0.862 µM). For the same molecule, the Minimum inhibitory concentration [10] was 0.5 µg/mL (≈ 0.431 µM), the Minimum inhibitory concentration [11] was 0.5 µg/mL (≈ 0.431 µM) and the Minimum inhibitory concentration [12] was 1 µg/mL (≈ 0.862 µM). The Minimum inhibitory concentration [13] was 0.25 µg/mL (≈ 0.215 µM).
With `CC[C@@H]1NC(=O)[C@@H](CC(C)C)NC(=O)[C@H](CCN)NC(=O)[C@@H](NC(=O)[C@H](CN)NC(=O)[C@@H](NC(=O)[C@H](CCN)NC(=O)c2cnc(Cl)c(Cl)c2)[C@@H](C)O)CCNC(=O)[C@H]([C@@H](C)O)NC(=O)[C@H](CCN)NC(=O)[C@H](CCN)NC1=O` [Compound 5] (X32-[Dab]T[Dap][Dab][Dab][dL][Abu][Dab][Dab]T; lactam 4-C) the Minimum inhibitory concentration ([1]; FADDI-AB030) was 0.5 µg/mL (≈ 0.431 µM), the Minimum inhibitory concentration [2] was 1 µg/mL (≈ 0.861 µM) and the Minimum inhibitory concentration [3] was 0.5 µg/mL (≈ 0.431 µM). The Minimum inhibitory concentration [4] was 1 µg/mL (≈ 0.861 µM), the Minimum inhibitory concentration [5] was 0.5 µg/mL (≈ 0.431 µM) and the Minimum inhibitory concentration [6] was under 0.25 µg/mL. The Minimum inhibitory concentration [7] was 0.25 µg/mL (≈ 0.215 µM), the Minimum inhibitory concentration [8] was under 0.125 µg/mL and the Minimum inhibitory concentration [9] was 0.5 µg/mL (≈ 0.431 µM). It also gave a Minimum inhibitory concentration [10] of 0.25 µg/mL (≈ 0.215 µM), a Minimum inhibitory concentration [11] of 1 µg/mL (≈ 0.861 µM) and a Minimum inhibitory concentration [12] of 1 µg/mL (≈ 0.861 µM). For the same molecule, the Minimum inhibitory concentration [13] was 0.25 µg/mL (≈ 0.215 µM).
`C[C@@H](O)[C@H]1C(=O)N2C(C(=O)O)=C(S[C@@H]3CN[C@H](CNS(N)(=O)=O)C3)[C@H](C)[C@H]12` [Doripenem, reference compound] was tested, and the MIC [1, 14] was over 8 µg/mL.
`C[C@H]1c2cccc(O)c2C(=O)C2=C(O)[C@]3(O)C(=O)C(C(N)=O)=C(O)[C@@H](N(C)C)[C@@H]3[C@@H](O)[C@@H]21` [Doxycycline, reference compound] showed an MIC [1, 14] of over 8 µg/mL.
`C[C@@H](O)[C@H]1C(=O)N2C(C(=O)O)=C(S[C@@H]3CN[C@H](C(=O)Nc4cccc(C(=O)O)c4)C3)[C@H](C)[C@H]12` [Ertapenem, reference compound] was tested, and the MIC [1, 14] was over 8 µg/mL.
`C[C@H]1NCc2cc(-c3ccc4c(=O)c(C(=O)O)cn(C5CC5)c4c3OC(F)F)ccc21` [Garenoxacin, reference compound] was tested, and the MIC [1, 14] was over 4 µg/mL.
With `COc1c(N2CCNC(C)C2)c(F)cc2c(=O)c(C(=O)O)cn(C3CC3)c12` (stereo not drawn) [Gatifloxacin, reference compound] the MIC [1, 14] was over 4 µg/mL.
In the case of `C[C@@H](O)[C@H]1C(=O)N2C(C(=O)O)=C(SCCN=CN)C[C@H]12` [Imipenem, reference compound], the MIC [1, 14] is reported as over 8 µg/mL.
For `C[C@H]1COc2c(N3CCN(C)CC3)c(F)cc3c(=O)c(C(=O)O)cn1c23` [Levofloxacin, reference compound], the MIC [1, 14] was over 4 µg/mL.
For `C[C@@H](O)[C@H]1C(=O)N2C(C(=O)O)=C(S[C@@H]3CN[C@H](C(=O)N(C)C)C3)[C@H](C)[C@H]12` [Meropenem, reference compound], the MIC [1, 14] was over 8 µg/mL.
`CN(C)c1ccc(O)c2c1C[C@H]1C[C@H]3[C@H](N(C)C)C(O)=C(C(N)=O)C(=O)[C@@]3(O)C(O)=C1C2=O` [Minocycline, reference compound] was tested, and the MIC [1, 14] was over 8 µg/mL.
With `COc1c(N2C[C@@H]3CCCN[C@@H]3C2)c(F)cc2c(=O)c(C(=O)O)cn(C3CC3)c12` [Moxifloxacin, reference compound] the MIC [1, 14] was over 4 µg/mL.
`CCN1CCN(C(=O)N[C@@H](C(=O)N[C@@H]2C(=O)N3[C@@H]2SC(C)(C)[C@@H]3C(=O)O)c2ccccc2)C(=O)C1=O` [Piperacillin, reference compound] was tested, and the MIC [1, 14] was over 64 µg/mL.
In the case of `CN(C)[C@@H]1C(O)=C(C(N)=O)C(=O)[C@@]2(O)C(O)=C3C(=O)c4c(O)cccc4[C@@](C)(O)[C@H]3C[C@@H]12` [Tetracycline, reference compound], the MIC [1, 14] is reported as over 8 µg/mL.
`CN(C)c1cc(NC(=O)CNC(C)(C)C)c(O)c2c1C[C@H]1C[C@H]3[C@H](N(C)C)C(O)=C(C(N)=O)C(=O)[C@@]3(O)C(O)=C1C2=O` [Tigecycline, reference compound] gave an MIC ([1]; FADDIAB030, read-out: minimum inhibitory concentration) of 4 µg/mL (≈ 6.83 µM).
In the case of `NC[C@H]1O[C@H](O[C@H]2[C@H](O)[C@@H](O[C@H]3O[C@H](CO)[C@@H](O)[C@H](N)[C@H]3O)[C@H](N)C[C@@H]2N)[C@H](N)C[C@@H]1O` [Tobramycin, reference compound], the MIC [1, 14] is reported as over 16 µg/mL.
In the case of Gentamicin [reference compound], the Minimum inhibitory concentration ([1]; clinically used antibiotics, clinical isolate A. baumannii FADDI-AB030) is reported as over 8 µg/mL.
